The subject of experiment [1] is ATP-induced IL-1β secretion in PBMCs. In words: IL-1β ELISA in patient-derived PBMCs/monocytes (STEMI and controls). Format: cell-based, human. Conditions: pre-incubated with 1 μmol/L compound. From the text: The role of inflammation in cardiovascular disease processes was explored. Patients that were admitted to the Royal North Shore Hospital, Sydney, Australia for clinically indicated cardiac catheterisation were consented for the study. These patients were subdivided according to their clinical presentation: • 1. Patients presenting with STEMI, characterised by recent-onset chest pain, ECG changes and/or raised cardiac enzymes. • 2. Age and sex-matched control patients with no evidence of coronary stenosis on angiography.
Patients were excluded from the study if they were taking anti-inflammatory medications, or if they had clinical or biochemical evidence of active infection or inflammation.
20 mL of blood was collected from the arterial sheath into an EDTA-coated tube. Samples were immediately diluted 1:1 in phosphate buffered saline (PBS) and layered on top of Ficoll-Paque for gradient separation. Samples were centrifuged at […] for 15 minutes. […]
(§1) Changes in secreted and intracellular levels of IL-1β were measured by ELISA (RnD systems). Samples were diluted 1 in 2 in commercial diluent, assayed according to manufacturer's instructions and detected at 450/570 nm.
Peripheral blood mononuclear cells (PBMCs) were collected from 19 STEMI patients at the time of infarct, and 3 healthy controls. […] IL-1β levels were measured by ELISA.

Experiment [2] deals with secreted IL-1β in THP-1 monocytic cells. In words: IL-1β dose-response testing in THP-1 monocytic cell line. Format: cell-based. The following applies: Homo sapiens; THP-1 treated with interferon-γ and lipopolysaccharide 3 hours, compound 1-1000 nM, ATP stimulation; read-out: LogEC50, secreted IL-1β (converted). As for the experimental part:
Supernatant was collected to measure the level of secreted IL-1β.
Cells were plated in 48-well Corning cell-bind plates at 2×10^5 cells/well, and treated with recombinant human interferon-γ (10 ng/mL) and lipopolysaccharide (25 ng/mL) for 3 hours. […] Supernatant was collected to measure the level of secreted IL-1ß.
as §1

In a further experiment the target is T1, hP2X7R (Homo sapiens, UniProt Q99572).
T1 sequence (Q99572 1-595): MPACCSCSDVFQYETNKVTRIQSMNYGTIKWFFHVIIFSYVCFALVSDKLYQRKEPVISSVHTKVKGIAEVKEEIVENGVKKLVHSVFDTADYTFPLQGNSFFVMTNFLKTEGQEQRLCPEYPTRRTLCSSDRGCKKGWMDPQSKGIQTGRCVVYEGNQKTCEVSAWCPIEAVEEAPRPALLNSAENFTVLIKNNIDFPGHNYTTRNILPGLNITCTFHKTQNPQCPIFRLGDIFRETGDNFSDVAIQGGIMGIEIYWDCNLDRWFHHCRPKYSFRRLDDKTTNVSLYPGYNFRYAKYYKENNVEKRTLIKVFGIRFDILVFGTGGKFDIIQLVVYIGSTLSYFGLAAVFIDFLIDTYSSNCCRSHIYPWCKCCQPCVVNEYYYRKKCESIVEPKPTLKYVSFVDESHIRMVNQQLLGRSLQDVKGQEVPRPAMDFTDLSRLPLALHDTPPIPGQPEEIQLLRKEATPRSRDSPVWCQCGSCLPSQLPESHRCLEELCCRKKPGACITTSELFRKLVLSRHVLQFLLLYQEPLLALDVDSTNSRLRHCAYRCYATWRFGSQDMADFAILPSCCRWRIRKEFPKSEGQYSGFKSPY
In words: Yo-Pro uptake assay for P2X7R pore formation in THP-1 cells. Type of experiment: cell-based. Conditions: for IC50: THP-1 cells, BzATP 100 μM, YO-PRO-1, mean ± standard deviation, n >4, read-out: Dye uptake IC50 hP2X7R; for LLE: pIC50 from dye uptake and LogD from HPLC. On the set-up: Following an overnight incubation (16 h) required for THP-1 differentiation; endogenous in cells; host or cells: THP-1 (ATCC), differentiated with LPS and IFN-gamma. As for the experimental part: HEK293T cells transfected with cDNA for the human (HEK-hP2X7) or mouse P2X7 (HEK-mP2X7) receptor (a kind gift from Dr Leanne Stokes and Prof. Jim Wiley) were cultured in DMEM/F12 with 10% FBS and 500 μg/mL G418 (all from Invitrogen). Cells were cultured in 75 cm^2 flasks and incubated at 37° C. in a 5% CO2 humidified atmosphere, maintained in log phase of growth and passaged when cell density reached 1×10^6 cells/mL (every 2-3 days).^3
P2X7R pore formation was assessed by agonist-induced uptake of the Yo-Pro-1 iodide dye. […] Final treatments (in triplicate) were made up in phosphate buffered saline (PBS), without divalent cations, containing PRO®-1 dye (2 μM). Cells were washed once in pre-warmed PBS and treatments were added to cells, with or without 2′(3′)-O-(4-benzoylbenzoyl)adenosine 5′-triphosphate (BzATP, 100 μM) as agonist. Dye uptake was measured at 37° C. using a fluorescence plate reader (BMG Labtech); with data read at λEx485nm/λEm520nm at 30 sec intervals over a 70 min period. […] IC50 values were determined from concentration-response curves derived from a four-parameter variable slope, analyzed in GraphPad Prism® (San Diego, CA).

From patent publication US12668568B2, “Adamantanyl-substituted benzamide compounds and their use as P2X7 receptor antagonists” (The University of Sydney, priority 2018, dated 2026) come the findings set out here.

Regarding `COc1ccc(Cl)c(C(=O)NCC23CC4(F)CC(F)(CC(F)(C4)C2)C3)c1` [Compound 1, 2-Chloro-N-((3,5,7-trifluoroadamantan-1-yl)methyl)-5-methoxybenzamide], in experiment [1] (STEMI patients' PBMCs), the “secreted IL-1β after ATP stimulation, STEMI PBMCs” value came out at 13.9±2.4. The “secreted IL-1β after ATP stimulation, control PBMCs” value in experiment [1] (healthy controls' PBMCs) came to 7.5±2.8. For the same molecule, the EC50 in experiment [2] is 8.53 nM.
Regarding `COc1ccc(Cl)c(C(=O)NCC23CC4CC(F)(CC(F)(C4)C2)C3)c1` [Compound 2, 2-Chloro-N-((3,5-difluoroadamantan-1-yl)methyl)-5-methoxybenzamide], at hP2X7R, the half-maximal inhibitory concentration (IC50) stood at 30.9 ± 8 nM and the LLE was determined as 4.66.
Take `COc1ccc(Cl)c(C(=O)NCC23CC4CC(CC(F)(C4)C2)C3)c1` [Compound 3, 2-Chloro-N-((3-fluoroadamantan-1-yl)methyl)-5-methoxybenzamide]: at hP2X7R, the IC50 was 25.1 ± 2.7 nM and the LLE was 4.33.
As for `COc1ccc(Cl)c(C(=O)NCC23CC4CC(CC(C4)C2)C3)c1` [Compound 31, reference compound], on hP2X7R, the 50% inhibitory concentration (IC50) was found to be 10.5 ± 3.1 nM and the LLE turned out to be 3.75.
